# Patent US5455234A, “Inhibition of hair growth” (priority 1994, dated 1995)
# What was measured:
# [1] = test system: flank organs of Golden Syrian hamsters (androgen-stimulated hair growth); assay: Golden Syrian hamster assay (flank organ hair mass after topical application); format: in vivo
# Text: Male intact Golden Syrian hamsters are considered acceptable models for human beard hair growth in that they display oval shaped flank organs, one on each side, each about 8 mm. in major diameter, which grow thick black and coarse hair similar to human beard hair. These organs produce hair in response to androgens in the hamster. To evaluate the effectiveness of a composition including an inhibitor, the flank organs of each of a group of hamsters are depilated by applying a thioglycolate based chemical depilatory (Surgex). To one organ of each animal 25 μl. of vehicle alone once a day is applied, while to the other organ of each animal an equal amount of vehicle containing an inhibitor of a cysteine synthetic pathway enzyme is applied. After thirteen applications (one application per day for five days a week), the flank organs are shaved and the amount of recovered hair (hair mass) from each is weighed. Percent-reduction of hair growth is calculated by subtracting the hair mass (mg) value of the test compound treated side from the hair mass value of the vehicle treated side; the delta value obtained is then divided by the hair mass value of the vehicle treated side, and the resultant number is multiplied by 100.
# The above-described assay will be referred to herein as the "Golden Syrian hamster" assay.
# [2] = test system: cysteine synthetic pathway intermediates in flank organ hair follicles; assay: Amino acid analysis of hamster flank organ hair follicles (Pico-Tag); format: in vivo; conditions: hair follicles of treated flank organs, vehicle A
# Method: Hair follicles were isolated from the flank organs which were treated with either an inhibitor of a cysteine pathway enzyme or the carrier without the inhibitor (the control). L-Cystathiorine, homocysteine, and S-adenosyl homocysteine, which are involved in a pathway leading to cysteine synthesis, were measured by an amino acid analysis method. The amino analysis of hamster flank organ hair follicles was carried out using a commercially available system (Pico-Tag; Waters Associates, Inc., Milford, Mass.). Hair follicle amino acids were extracted with 0.1N HCL, an derivatized with phenylisothiocyanate to yield the phenylthiohydantion derivatives of the respective amino acids, which were then separated by C-18 reverse phase chromatography, and quantitated by in-line UV spectrophotometry.
# More specifically, 250-500 μl of 0.1N HCL was added to each flank organ hair follicle sample, followed by treatment with a sonicator device to obtain cell extracts. The cell extracts were centrifuged at 12,000×gfor 5 min, and the recovered supernatant was filtered through 0.45μ filter. The filtrate was vacuum dried under nitrogen using the Pico-Tag work station. Samples were then derivatized with phenylisothiocyanate reagent by the procedure described in the Waters Associates Pico-Tag manual. An aliquot of the derivatized sample was injected on a C-18 reverse phase column (Pico-Tag column) and the elution was carried out with a gradient buffer system. This procedure separated the amino acids L-cystathionine, homocysteine, and S-adenosyl homocysteine from other amino acids present in hair follicle extracts. The amino acid concentrations were determined at UV wavelength 254 nm using an in-line spectrophotometer and a dedicated HPLC control and data analysis system (Waters Associates).
# [3] = topical, dose 10%, vehicle A, pH 4.5, 13 applications
# [4] = Table 2, topical, dose 0.25%, vehicle A, pH 4.5
# [5] = Table 2, topical, dose 0.50%, vehicle A, pH 5.0
# [6] = Table 2, topical, dose 1.00%, vehicle A, pH 5.0
# [7] = Table 2, topical, dose 5.00%, vehicle A, pH 5.0
# [8] = topical, dose 5%, vehicle A, pH 4.5, 13 applications
# [9] = topical, dose 15%, vehicle A, pH 8.0, 13 applications
# [10] = topical, dose 15%, vehicle B, pH 9.5, 13 applications
# [11] = topical, dose 20%, vehicle A, pH 8.5, 13 applications
# [12] = topical, dose 20%, vehicle A, pH 7.0, 13 applications
# [13] = topical, dose 20%, vehicle A, pH 7.5, 13 applications
smiles,measurement,setting,value
Nc1ncnc2c1ncn2[C@@H]1O[C@H](CO)[C@@H](O)[C@H]1O [Adenosine],Hair Mass Treated (mg mean ± SEM),[1]; [3],1.140 ± 0.12 mg
same,Percent Inhibition (mean ± SEM),[1]; [3],55.28 ± 4.00%
Nc1nccc2c1ncn2[C@@H]1C=C(CO)[C@@H](O)[C@H]1O [3-Deazaneplanocin],Hair Mass Treated,[1]; [4],1.889 ± 0.15 mg
same,Percent Inhibition (mean ± SEM),[1]; [4],14.82 ± 5.45%
same,Hair Mass Treated,[1]; [5],1.487 ± 0.16 mg
same,Percent Inhibition (mean ± SEM),[1]; [5],35.49 ± 4.62%
same,Hair Mass Treated,[1]; [6],1.113 ± 0.08 mg
same,Percent Inhibition (mean ± SEM),[1]; [6],50.94 ± 4.77%
same,Hair Mass Treated,[1]; [7],0.357 ± 0.15 mg
same,Percent Inhibition (mean ± SEM),[1]; [7],86.65 ± 4.81%
same,dose dependence of inhibition in hair growth,"[1]; topical application, dosage levels 0.25% to 5.00%",increased dosage level of the inhibitor provided an increased inhibition in hair growth
same,Hair Mass Treated (mg mean ± SEM),[1]; [8],0.357 ± 0.15 mg
same,Percent Inhibition (mean ± SEM),[1]; [8],86.65 ± 4.81%
same,"L-Cystathionine, Percent of Untreated Control (100%)","[2]; dose 0.125%, pH 4.5",49%
same,"S-Adenosyl Homocysteine, Percent of Untreated Control (100%)","[2]; dose 0.125%, pH 4.5",144%
same,"L-Cystathionine, Percent of Untreated Control (100%)","[2]; dose 0.250%, pH 4.5",29%
same,"S-Adenosyl Homocysteine, Percent of Untreated Control (100%)","[2]; dose 0.250%, pH 4.5",149%
same,"L-Cystathionine, Percent of Untreated Control (100%)","[2]; dose 0.500%, pH 4.5",12%
same,"S-Adenosyl Homocysteine, Percent of Untreated Control (100%)","[2]; dose 0.500%, pH 4.5",218%
N[C@@H](COC(=O)CCC(=O)O)C(=O)O [O-Succinyl serine],Hair Mass Treated (mg mean ± SEM),[1]; [9],0.710 ± 0.07 mg
same,Percent Inhibition (mean ± SEM),[1]; [9],63.58 ± 4.69%
same,"Homocysteine, Percent of Untreated Control (100%)","[2]; dose 15%, pH 8.0",228%
same,"L-Cystathionine, Percent of Untreated Control (100%)","[2]; dose 15%, pH 8.0",66%
"C#CCC(N)C(=O)O (racemic) [DL-Propargylglycine, D,L-2-amino-4-pentynoic acid]",Hair Mass Treated (mg mean ± SEM),[1]; [10],1.401 ± 0.14 mg
same,Percent Inhibition (mean ± SEM),[1]; [10],33.12 ± 5.59%
NNC(=O)c1ccncc1 [Isonicotinic acid hydrazide],Hair Mass Treated (mg mean ± SEM),[1]; [11],1.344 ± 0.18 mg
same,Percent Inhibition (mean ± SEM),[1]; [11],35.13 ± 7.98%
"CC(=O)OC[C@H]1O[C@@H](n2ncc(=O)[nH]c2=O)[C@H](OC(C)=O)[C@@H]1OC(C)=O [6-Azauridine-2',3',5'-triacetate]",Hair Mass Treated (mg mean ± SEM),[1]; [12],0.455 ± 0.05 mg
same,Percent Inhibition (mean ± SEM),[1]; [12],80.25 ± 2.37%
same,"L-Cystathionine, Percent of Untreated Control (100%)","[2]; dose 20%, pH 7.0",60%
"NC(C(=O)O)C(F)(F)F (racemic) [3,3,3,-Trifluoro-DL-alanine]",Hair Mass Treated (mg mean ± SEM),[1]; [13],1.110 ± 0.13 mg
same,Percent Inhibition (mean ± SEM),[1]; [13],32.36 ± 8.01%
